Data as given in ChEMBL document CHEMBL2046317, “A-ring dihalogenation increases the cellular activity of combretastatin-templated tetrazoles” (ACS Med Chem Lett, 2012).

Tests used:
[1] = tested on: HUVEC; assay: Antivascular activity against HUVEC after 24 hrs by xCELLigence assays; assay type: functional, cell-based; details: Homo sapiens
[2] = tested on: SK-OV-3; assay: Cell cycle arrest in human SKOV3 cells assessed as accumulation at G2/M phase at 5 nM by FACS analysis; assay type: functional
[3] = tested on: SK-OV-3; assay: Growth inhibition of human SKOV3 cells after 48 hrs by SRB assay; assay type: functional, cell-based; details: SK-OV-3, 48 h
[4] = tested on: SK-OV-3; assay: Cell cycle arrest in human SKOV3 cells assessed as accumulation at sub-G1 phase at 5 nM by FACS analysis; assay type: functional
[5] = species on record: Bos taurus; assay: Inhibition of purified bovine tubulin polymerization at 5 uM measured 30 secs intervals for 60 mins by spectrophotometer analysis relative to control
[6] = tested on: DLD-1; assay: Growth inhibition of human DLD1 cells after 48 hrs by SRB assay; assay type: functional, cell-based; details: DLD-1, 48 h
[7] = tested on: MCF7; assay: Growth inhibition of human MCF7 cells after 48 hrs by SRB assay; assay type: functional, cell-based; details: MCF7, 48 h
[8] = tested on: A549; assay: Growth inhibition of human A549 cells after 48 hrs by SRB assay; assay type: functional, cell-based; details: A549, 48 h
[9] = tested on: HT-29; assay: Growth inhibition of combretastatin-resistant human HT-29 cells after 48 hrs by SRB assay; assay type: functional, cell-based; details: HT-29, 48 h
[10] = tested on: SK-OV-3; assay: Growth inhibition of paclitaxel-resistant human SKOV3 cells after 48 hrs by SRB assay; assay type: functional, cell-based; details: SK-OV-3, 48 h
[11] = tested on: MRC5; assay: Growth inhibition of human MRC5 cells after 48 hrs by SRB assay; assay type: cell-based; details: MRC5, 48 h
[12] = tested on: PC-3; assay: Growth inhibition of human PC3 cells after 48 hrs by SRB assay; assay type: functional, cell-based; details: PC-3, 48 h
[13] = Inhibition of tubulin polymerization

Structure (SMILES)	IC50 [3] [nM]	fold change (FC) [5]	IC50 [6] [nM]	IC50 [7] [nM]	IC50 [8] [nM]	IC50 [9] [nM]	IC50 [10] [nM]	IC50 [12] [nM]	IC50 [1] [nM]	Activity [2] [%]	Activity [4] [%]	IC50 [11] [nM]	IC50 [13] [nM]
COc1ccc(/C=C\c2cc(I)c(OC)c(I)c2)cc1O	5								1.9	84			
COc1ccc(/C=C\c2cc(OC)c(OC)c(OC)c2)cc1O [COMBRETASTATIN A4]		3	3.3	3	7.9	538	4.2	2.9		31	<5	2.8	
COc1ccc(/C=C\c2cc(Br)c(OC)c(Br)c2)cc1O	5								3	52			
COc1ccc(-c2nnnn2-c2cc(OC)c(OC)c(OC)c2)cc1N													2000

More lines, main results first:

IC50 [3] [nM]	fold change (FC) [5]	IC50 [6] [nM]	IC50 [7] [nM]	IC50 [8] [nM]	IC50 [9] [nM]	IC50 [10] [nM]	IC50 [12] [nM]	Structure (SMILES)	IC50 [1] [nM]	Activity [2] [%]	Activity [4] [%]	IC50 [11] [nM]	IC50 [13] [nM]
2.6	1.7	2.4	1.9	2.8	513	1.4	0.5	COc1ccc(-c2nnnn2-c2cc(I)c(OC)c(I)c2)cc1O	2.4	89		2.2	
9.5	2.9	24	21	22	> 500	11	9	COc1ccc(-c2nnnn2-c2cc(OC)c(OC)c(OC)c2)cc1O	13.6	25		12	
6.1	1.5	8.2	7	21	> 500	5.6	2.9	COc1ccc(-c2nnnn2-c2cc(Br)c(OC)c(Br)c2)cc1O	6.6	40		5.7	
